The text below walks through data of US20260070902A1, “SULFONYL DERIVATIVES AS CCR6 INHIBITORS” (Hoffmann-La Roche Inc., priority 2022, published 2026).

Experiment [1] addresses T1, human CCR6 (Homo sapiens, UniProt P51684).
T1 sequence (P51684 1-374): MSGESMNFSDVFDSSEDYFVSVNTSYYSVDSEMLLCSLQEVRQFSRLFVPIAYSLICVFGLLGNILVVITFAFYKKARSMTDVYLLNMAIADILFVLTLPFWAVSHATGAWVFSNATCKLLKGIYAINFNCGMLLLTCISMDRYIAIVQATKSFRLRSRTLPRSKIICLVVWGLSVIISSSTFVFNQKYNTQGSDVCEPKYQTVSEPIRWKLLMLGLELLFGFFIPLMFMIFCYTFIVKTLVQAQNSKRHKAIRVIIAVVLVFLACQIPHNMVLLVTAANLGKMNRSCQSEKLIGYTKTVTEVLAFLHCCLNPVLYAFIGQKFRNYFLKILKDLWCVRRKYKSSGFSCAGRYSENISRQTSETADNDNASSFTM
Description: CHO-K1 CCR6 chemotaxis assay towards CCL20. Type of experiment: cell-based. The conditions noted are these: relative -Log IC50; CHO-K1 cells overexpressing human CCR6; migration towards 100 ng/ml CCL20; 4 h. In short, it runs like this: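 Human CCR6-overexpressing CHO-K1 cells (2*10^6 cells/ml) were preincubated 30 min at 37 °C with compound (0.2% DMSO), then allowed to migrate 4 h through 8 µm Transwell pores toward 100 ng/ml CCL20. Migrated cells were counted by CellTiter Glo. −Log IC50 came from four-parameter fits normalised to DMSO without/with CCL20.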

For experiment [2], the target named is T1, human CCR6. In words: Human CCR6-CRE reporter assay. Type of experiment: cell-based. On the set-up: The second construct contained the open reading frame of human CCR6 in the pUNO1 backbone; host or cells: 293FT cells. The conditions noted are these: relative -Log IC50; 293FT cells transfected with human CCR6 and CRE-luciferase reporter; 6 μM Forskolin, 6 nM CCL20; 5 h. The gist of the method:
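293FT cells transiently co-transfected with human CCR6 and a CRE-luc2P reporter, used 48 h later. Compounds incubated with cells in medium containing 6 μM Forskolin and 6 nM CCL20 (assay-medium levels), 0.1% DMSO final, 5 h at 37° C; luminescence read, relative −Log IC50 from four-parameter fit.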
For orientation: A reporter such as luciferase makes a cellular process visible.

On to `CNC(=O)c1ccc(-c2ccc(S(=N)(=O)[C@H]3CC[C@H](Nc4ccc(S(F)(F)(F)(F)F)cc4)CC3)cc2)cn1` (stereo partly drawn) [Example 101, N-methyl-5-(4-{[trans-4-{[4-(pentafluoro-λ^6-sulfanyl)phenyl]Amino}cyclohexyl]sulfonimidoyl}phenyl)pyridine-2-carboxamide], for which the results for the half-maximal inhibitory concentration (IC50) against human CCR6 [1] and against human CCR6 [2] were 794 nM and 316 nM, respectively.
The corresponding values for `Cc1nnc2ccc(-c3ccc(S(=N)(=O)[C@H]4CC[C@H](Nc5ccc(S(F)(F)(F)(F)F)cc5)CC4)cc3)cn12` (stereo partly drawn) [Example 105, (4-{3-methyl-[1,2,4]triazolo[4,3-a]pyridin-6-yl}phenyl)[trans-4-{[4-(pentafluoro-λ^6-sulfanyl)phenyl]Amino}cyclohexyl](imino)-λ^6-sulfanone] are 631 nM and 398 nM.
With `CNC(=O)c1ccc(-c2ccc(S(=N)(=O)N3CCC(Nc4ccc(S(F)(F)(F)(F)F)cc4)CC3)cc2)cn1` (stereo not drawn) [Example 121, N-methyl-5-{4-[(4-{[4-(pentafluoro-λ^6-sulfanyl)phenyl]Amino}piperidin-1-yl)sulfonimidoyl]phenyl}pyridine-2-carboxamide], the concentration for half-maximal inhibition (IC50) against human CCR6 [1] was 158 nM; at human CCR6 [2], 251 nM.
Taken in the same sequence, the figures for `N=S(=O)(c1ccc(-c2ccc3c(c2)CC(=O)N3)cc1)N1CCC(Nc2ccc(S(F)(F)(F)(F)F)cc2)CC1` (stereo not drawn) [Example 123, 5-{4-[(4-{[4-(pentafluoro-λ^6-sulfanyl)phenyl]Amino}piperidin-1-yl)sulfonimidoyl]phenyl}-2,3-dihydro-1H-indol-2-one] were 200 nM and 251 nM.
For `N=S(=O)(c1ccc(-c2ccc3nccn3c2)cc1)N1CCC(Nc2ccc(S(F)(F)(F)(F)F)cc2)CC1` (stereo not drawn) [Example 124, (4-{imidazo[1,2-a]pyridin-6-yl}phenyl)(4-{[4-(pentafluoro-λ^6-sulfanyl)phenyl]Amino}piperidin-1-yl)(imino)-λ^6-sulfanone], the IC50 on human CCR6 [1] is 126 nM; on human CCR6 [2], 200 nM.
Consider `CNC(=O)c1cc(-c2ccc(S(=O)(=O)N3CCC(Nc4ccc(S(F)(F)(F)(F)F)cc4)CC3)cc2)ccc1F` [Example 138, 4-fluoro-N-methyl-4′-[(4-{[4-(pentafluoro-λ^6-sulfanyl)phenyl]amino}piperidin-1-yl)sulfonyl]-[1,1′-biphenyl]-3-carboxamide], for which the half-inhibitory concentration (IC50) against human CCR6 [1] is 20 nM; against human CCR6 [2], 63.1 nM.
Taken in the same sequence, the figures for `CNC(=O)c1ccc(-c2ccc(S(=O)(=O)N3CCC(Nc4ccc(S(F)(F)(F)(F)F)cc4)CC3)cc2)cc1F` [Example 139, 3-fluoro-N-methyl-4′-[(4-{[4-(pentafluoro-λ^6-sulfanyl)phenyl]amino}piperidin-1-yl)sulfonyl]-[1,1′-biphenyl]-4-carboxamide] were 10 nM and 63.1 nM.
Consider `Cc1n[nH]c2cnc(-c3ccc(S(=O)(=O)[C@H]4CC[C@H](Nc5ccc(S(F)(F)(F)(F)F)cc5)CC4)cc3)cc12` [Example 142, 4-(pentafluoro-λ^6-sulfanyl)-N-[trans-4-(4-{3-methyl-1H-pyrazolo[3,4-c]pyridin-5-yl}benzenesulfonyl)cyclohexyl]aniline], for which the half-inhibitory concentration (IC50) was 25.1 nM on human CCR6 [1] and 251 nM against human CCR6 [2].
The corresponding values for `O=S(=O)(c1ccc(-c2cc3cn[nH]c3cn2)cc1)[C@H]1CC[C@H](Nc2ccc(S(F)(F)(F)(F)F)cc2)CC1` [Example 147, 4-(pentafluoro-λ^6-sulfanyl)-N-[trans-4-(4-{1H-pyrazolo[3,4-c]pyridin-5-yl}benzenesulfonyl)cyclohexyl]aniline] are 39.8 nM and 200 nM.
Taken in the same sequence, the figures for `O=S(=O)(c1ccc(-c2cc(F)c3nccn3c2)cc1)[C@H]1CC[C@H](Nc2ccc(S(F)(F)(F)(F)F)cc2)CC1` [Example 152, 4-(pentafluoro-λ^6-sulfanyl)-N-[trans-4-(4-{8-fluoroimidazo[1,2-a]pyridin-6-yl}benzenesulfonyl)cyclohexyl]aniline] were 10 nM and 100 nM.
Taken in the same sequence, the figures for `O=C1NCCc2sc(-c3ccc(S(=O)(=O)[C@H]4CC[C@H](Nc5ccc(S(F)(F)(F)(F)F)cc5)CC4)cc3)cc21` [Example 153, 2-(4-{[trans-4-{[4-(pentafluoro-λ^6-sulfanyl)phenyl]amino}cyclohexyl]sulfonyl}phenyl)-4H,5H,6H,7H-thieno[3,2-c]pyridin-4-one] were 15.8 nM and 158 nM.
With `O=C1NCCCn2cc(-c3ccc(S(=O)(=O)[C@H]4CC[C@H](Nc5ccc(S(F)(F)(F)(F)F)cc5)CC4)cc3)cc21` [Example 155, 8-(4-{[trans-4-{[4-(pentafluoro-λ^6-sulfanyl)phenyl]amino}cyclohexyl]sulfonyl}phenyl)-1H,2H,3H,4H,5H-pyrrolo[1,2-a][1,4]diazepin-1-one], the results for the IC50 against human CCR6 [1] and at human CCR6 [2] were 31.6 nM and 158 nM, respectively.
Taken in the same sequence, the figures for `O=C1NCCn2cc(-c3ccc(S(=O)(=O)[C@H]4CC[C@H](Nc5ccc(S(F)(F)(F)(F)F)cc5)CC4)cc3)cc21` [Example 156, 7-(4-{[trans-4-{[4-(pentafluoro-λ^6-sulfanyl)phenyl]amino}cyclohexyl]sulfonyl}phenyl)-1H,2H,3H,4H-pyrrolo[1,2-a]pyrazin-1-one] were 39.8 nM and 158 nM.
The corresponding values for `NC(=O)c1cc(-c2ccc(S(=O)(=O)[C@H]3CC[C@H](Nc4ccc(S(F)(F)(F)(F)F)cc4)CC3)cc2)cn2ccnc12` [Example 157, 6-(4-{[trans-4-{[4-(pentafluoro-λ^6-sulfanyl)phenyl]amino}cyclohexyl]sulfonyl}phenyl)imidazo[1,2-a]pyridine-8-carboxamide] are 2.51 nM and 79.4 nM.
The corresponding values for `NC(=O)c1cc(-c2ccc(S(=O)(=O)[C@H]3CC[C@H](Nc4ccc(S(F)(F)(F)(F)F)cc4)CC3)cc2)co1` [Example 158, 4-(4-{[trans-4-{[4-(pentafluoro-λ^6-sulfanyl)phenyl]amino}cyclohexyl]sulfonyl}phenyl)furan-2-carboxamide] are 10 nM and 100 nM.
Regarding `Nc1cc(-c2ccc(S(=O)(=O)[C@H]3CC[C@H](Nc4ccc(S(F)(F)(F)(F)F)cc4)CC3)cc2)cn2ccnc12` [Example 159, 6-(4-{[trans-4-{[4-(pentafluoro-λ^6-sulfanyl)phenyl]amino}cyclohexyl]sulfonyl}phenyl)imidazo[1,2-a]pyridin-8-amine], the IC50 is 12.6 nM at human CCR6 [1] and 63.1 nM against human CCR6 [2].
Taken in the same sequence, the figures for `O=S(=O)(c1ccc(-c2ccc3nnc(C4CNC4)n3c2)cc1)N1CCC(Nc2ccc(S(F)(F)(F)(F)F)cc2)CC1` [Example 167, 1-{4-[3-(azetidin-3-yl)-[1,2,4]triazolo[4,3-a]pyridin-6-yl]benzenesulfonyl}-N-[4-(pentafluoro-λ^6-sulfanyl)phenyl]piperidin-4-amine] were 251 nM and 251 nM.
On to `N=S(=O)(c1ccc(-c2ccc3nnc(C(F)F)n3c2)cc1)[C@H]1CC[C@H](Nc2ccc(S(F)(F)(F)(F)F)cc2)CC1` (stereo partly drawn) [Example 169, {4-[3-(difluoromethyl)-[1,2,4]triazolo[4,3-a]pyridin-6-yl]phenyl}[trans-4-{[4-(pentafluoro-λ^6-sulfanyl)phenyl]amino}cyclohexyl](imino)-λ^6-sulfanone], for which the half-maximal inhibitory concentration (IC50) at human CCR6 [1] is 79.4 nM; on human CCR6 [2], 316 nM.

The term IC50 denotes the midpoint of a concentration-inhibition curve. Lower therefore signals inhibition by little substance.
